According to PubChem BioAssay (NCI):
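Here, GI50 denotes the concentration required for 50% inhibition of growth. The concentration for full growth arrest is given as TGI.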

Assays:
Experiment in all cases: NCI-60 cell line screen, 384-well format
SF-539 CNS = test system: SF-539 CNS
SF-268 CNS = test system: SF-268 CNS
SR leukemia = test system: SR leukemia
RXF 393 renal = test system: RXF 393 renal
SW-620 colon = test system: SW-620 colon
NCI-H23 lung = test system: NCI-H23 lung
MDA-MB-468 breast = test system: MDA-MB-468 breast
SF-295 CNS = test system: SF-295 CNS
SNB-19 CNS = test system: SNB-19 CNS
OVCAR-3 ovarian = test system: OVCAR-3 ovarian
UO-31 renal = test system: UO-31 renal
OVCAR-4 ovarian = test system: OVCAR-4 ovarian
NCI-H460 NSCLC = test system: NCI-H460 NSCLC
HCC-2998 colon = test system: HCC-2998 colon
ACHN renal = test system: ACHN renal
CAKI-1 renal = test system: CAKI-1 renal
TK-10 renal = test system: TK-10 renal
T-47D breast = test system: T-47D breast
HCT-15 colon = test system: HCT-15 colon
NCI-H522 lung = test system: NCI-H522 lung
COLO 205 colon = test system: COLO 205 colon
U251 glioblastoma = test system: U251 glioblastoma
HCT-116 colon = test system: HCT-116 colon
CCRF-CEM leukemia = test system: CCRF-CEM leukemia
HL-60(TB) leukemia = test system: HL-60(TB) leukemia
NCI-H322M lung = test system: NCI-H322M lung
A549 NSCLC = test system: A549 NSCLC
SK-MEL-28 melanoma = test system: SK-MEL-28 melanoma
MDA-MB-435 melanoma = test system: MDA-MB-435 melanoma

C[C@H](Nc1ncnc2nc[nH]c12)c1cc2ccc(F)cc2nc1-c1ccccn1
GI50 (SF-539 CNS): > 100 µM | TGI (SF-539 CNS): > 100 µM | GI50 (SF-268 CNS): > 100 µM | TGI (SF-268 CNS): > 100 µM | GI50 (SR leukemia): 1.06 µM | TGI (SR leukemia): 8.99 µM | GI50 (RXF 393 renal): 12.6 µM | TGI (RXF 393 renal): > 100 µM | GI50 (SW-620 colon): > 100 µM | TGI (SW-620 colon): > 100 µM | GI50 (NCI-H23 lung): > 100 µM | TGI (NCI-H23 lung): > 100 µM | GI50 (MDA-MB-468 breast): 59.2 µM | TGI (MDA-MB-468 breast): > 100 µM | GI50 (SF-295 CNS): 29.4 µM | TGI (SF-295 CNS): > 100 µM | GI50 (SNB-19 CNS): > 100 µM | TGI (SNB-19 CNS): > 100 µM | GI50 (OVCAR-3 ovarian): 34.7 µM | TGI (OVCAR-3 ovarian): > 100 µM | GI50 (UO-31 renal): 49.9 µM | TGI (UO-31 renal): > 100 µM | GI50 (OVCAR-4 ovarian): > 100 µM | TGI (OVCAR-4 ovarian): > 100 µM | GI50 (NCI-H460 NSCLC): > 100 µM | TGI (NCI-H460 NSCLC): > 100 µM | GI50 (HCC-2998 colon): > 100 µM | TGI (HCC-2998 colon): > 100 µM | GI50 (ACHN renal): 96.1 µM | TGI (ACHN renal): > 100 µM | GI50 (CAKI-1 renal): 8.35 µM | TGI (CAKI-1 renal): 54.1 µM | GI50 (TK-10 renal): > 100 µM | TGI (TK-10 renal): > 100 µM | GI50 (T-47D breast): 31.2 µM | TGI (T-47D breast): > 100 µM | GI50 (HCT-15 colon): > 100 µM | TGI (HCT-15 colon): > 100 µM | GI50 (NCI-H522 lung): 67.4 µM | TGI (NCI-H522 lung): > 100 µM | GI50 (COLO 205 colon): > 100 µM | TGI (COLO 205 colon): > 100 µM | GI50 (U251 glioblastoma): > 100 µM | TGI (U251 glioblastoma): > 100 µM | GI50 (HCT-116 colon): > 100 µM | TGI (HCT-116 colon): > 100 µM | GI50 (CCRF-CEM leukemia): 11 µM | TGI (CCRF-CEM leukemia): > 100 µM | GI50 (HL-60(TB) leukemia): 3.53 µM | TGI (HL-60(TB) leukemia): 24.3 µM | GI50 (NCI-H322M lung): > 100 µM | TGI (NCI-H322M lung): > 100 µM | GI50 (A549 NSCLC): > 100 µM | TGI (A549 NSCLC): > 100 µM | GI50 (SK-MEL-28 melanoma): > 100 µM | TGI (SK-MEL-28 melanoma): > 100 µM | GI50 (MDA-MB-435 melanoma): > 100 µM | TGI (MDA-MB-435 melanoma): > 100 µM
